From the NIST ThermoML archive (doi:10.1016/j.jct.2015.03.021)
± gives the expanded uncertainty stated by the source.

Key:
[1] = 101.33 kPa, Liquid, Vibrating tube method
[2] = relative permittivity at various frequencies (dimensionless); details: 100 kPa, Liquid, Frequency=1 MHz, Parallel plate capacitor
[3] = excess molar enthalpy (molar enthalpy of mixing); xn = mol fraction of the nth substance listed; details: 100 kPa, Liquid, Calvet calorimetry

CCC(C)CO (stereo not given) [2-methyl-1-butanol]
Details | mass density, [1] [kg/m3] | relative permittivity, [2]
298.15 K | 814.98 ± 0.31 | 15.52 ± 0.23
308.15 K | 807.63 ± 0.31 | 14.07 ± 0.23

CCC(C)CO (stereo not given) [2-methyl-1-butanol] + CCCCOCCCC
[3]
Details | excess molar enthalpy [kcal/mol]
298.15 K, x2 = 0.0954 | 0.0664 ± 0.00143
298.15 K, x2 = 0.162 | 0.113 ± 0.00239
298.15 K, x2 = 0.2536 | 0.165 ± 0.00359
298.15 K, x2 = 0.3156 | 0.193 ± 0.00406
298.15 K, x2 = 0.4007 | 0.221 ± 0.00478
298.15 K, x2 = 0.4806 | 0.241 ± 0.00526
298.15 K, x2 = 0.5445 | 0.246 ± 0.00526
298.15 K, x2 = 0.6338 | 0.248 ± 0.00526
298.15 K, x2 = 0.7017 | 0.237 ± 0.00502
298.15 K, x2 = 0.7832 | 0.211 ± 0.00454
298.15 K, x2 = 0.8542 | 0.176 ± 0.00382
298.15 K, x2 = 0.9335 | 0.101 ± 0.00215
308.15 K, x2 = 0.0798 | 0.0595 ± 0.00143
308.15 K, x2 = 0.152 | 0.111 ± 0.00239
308.15 K, x2 = 0.2539 | 0.168 ± 0.00359
308.15 K, x2 = 0.3152 | 0.198 ± 0.0043
308.15 K, x2 = 0.4069 | 0.224 ± 0.00478
308.15 K, x2 = 0.4701 | 0.242 ± 0.00526
308.15 K, x2 = 0.5703 | 0.251 ± 0.0055
308.15 K, x2 = 0.6528 | 0.249 ± 0.00526
308.15 K, x2 = 0.7263 | 0.235 ± 0.00502
308.15 K, x2 = 0.8093 | 0.202 ± 0.0043
308.15 K, x2 = 0.897 | 0.147 ± 0.00311
308.15 K, x2 = 0.9553 | 0.07 ± 0.00167

CCC(C)(C)O [2-methylbutan-2-ol]
Details | mass density, [1] [kg/m3] | relative permittivity, [2]
298.15 K | 804.31 ± 0.82 | 5.63 ± 0.07
308.15 K | 795.16 ± 0.8 | 5.23 ± 0.07

CCC(C)(C)O [2-methylbutan-2-ol] + CCCCOCCCC
excess molar enthalpy [kcal/mol], [3]
Details | 298.15 K | 308.15 K
x2 = 0.0916 | 0.0557 ± 0.0012 | –
x2 = 0.0919 | – | 0.065 ± 0.00143
x2 = 0.1591 | 0.098 ± 0.00215 | –
x2 = 0.1603 | – | 0.108 ± 0.00239
x2 = 0.2403 | 0.141 ± 0.00311 | 0.155 ± 0.00335
x2 = 0.3201 | 0.18 ± 0.00382 | –
x2 = 0.3244 | – | 0.188 ± 0.00406
x2 = 0.3985 | 0.21 ± 0.00454 | –
x2 = 0.4034 | – | 0.217 ± 0.00454
x2 = 0.4755 | 0.234 ± 0.00502 | –
x2 = 0.476 | – | 0.244 ± 0.00526
x2 = 0.5445 | 0.249 ± 0.00526 | –
x2 = 0.5541 | – | 0.262 ± 0.00574
x2 = 0.6392 | 0.258 ± 0.0055 | –
x2 = 0.6992 | 0.255 ± 0.0055 | –
x2 = 0.702 | – | 0.272 ± 0.00574
x2 = 0.7733 | 0.237 ± 0.00502 | –
x2 = 0.7747 | – | 0.258 ± 0.0055
x2 = 0.8569 | 0.199 ± 0.0043 | –
x2 = 0.8671 | – | 0.204 ± 0.0043
x2 = 0.9322 | – | 0.129 ± 0.00287
x2 = 0.933 | 0.123 ± 0.00263 | –

CC(C)C(C)O (stereo not given) [3-methyl-2-butanol]
Details | mass density, [1] [kg/m3] | relative permittivity, [2]
298.15 K | 813.09 ± 0.83 | 11.98 ± 0.19
308.15 K | 804.35 ± 0.82 | 10.78 ± 0.19

CC(C)C(C)O (stereo not given) [3-methyl-2-butanol] + CCCCOCCCC
[3]
Details | excess molar enthalpy [kcal/mol]
298.15 K, x2 = 0.0959 | 0.0882 ± 0.00191
298.15 K, x2 = 0.1639 | 0.144 ± 0.00311
298.15 K, x2 = 0.2508 | 0.204 ± 0.0043
298.15 K, x2 = 0.3274 | 0.241 ± 0.00526
298.15 K, x2 = 0.3977 | 0.263 ± 0.00574
298.15 K, x2 = 0.4693 | 0.279 ± 0.00598
298.15 K, x2 = 0.552 | 0.289 ± 0.00621
298.15 K, x2 = 0.6335 | 0.287 ± 0.00621
298.15 K, x2 = 0.7081 | 0.273 ± 0.00574
298.15 K, x2 = 0.7757 | 0.248 ± 0.00526
298.15 K, x2 = 0.8645 | 0.194 ± 0.00406
298.15 K, x2 = 0.9394 | 0.106 ± 0.00239
308.15 K, x2 = 0.0813 | 0.0648 ± 0.00143
308.15 K, x2 = 0.155 | 0.118 ± 0.00263
308.15 K, x2 = 0.2572 | 0.181 ± 0.00382
308.15 K, x2 = 0.3229 | 0.233 ± 0.00502
308.15 K, x2 = 0.4119 | 0.263 ± 0.00574
308.15 K, x2 = 0.4817 | 0.281 ± 0.00598
308.15 K, x2 = 0.5473 | 0.288 ± 0.00621
308.15 K, x2 = 0.6348 | 0.287 ± 0.00621
308.15 K, x2 = 0.7226 | 0.269 ± 0.00574
308.15 K, x2 = 0.8083 | 0.235 ± 0.00502
308.15 K, x2 = 0.8908 | 0.168 ± 0.00359
308.15 K, x2 = 0.9786 | 0.0538 ± 0.0012

CC(C)CCO [3-methylbutan-1-ol]
Details | mass density, [1] [kg/m3] | relative permittivity, [2]
298.15 K | 804.24 ± 0.31 | 15.09 ± 0.22
308.15 K | 796.95 ± 0.31 | 13.73 ± 0.22

CC(C)CCO [3-methylbutan-1-ol] + CCCCOCCCC
[3]
Details | excess molar enthalpy [kcal/mol]
298.15 K, x2 = 0.092 | 0.0552 ± 0.0012
298.15 K, x2 = 0.1608 | 0.0932 ± 0.00215
298.15 K, x2 = 0.2389 | 0.132 ± 0.00287
298.15 K, x2 = 0.3161 | 0.16 ± 0.00335
298.15 K, x2 = 0.3993 | 0.187 ± 0.00406
298.15 K, x2 = 0.4694 | 0.204 ± 0.0043
298.15 K, x2 = 0.5458 | 0.216 ± 0.00454
298.15 K, x2 = 0.6389 | 0.221 ± 0.00478
298.15 K, x2 = 0.7088 | 0.211 ± 0.00454
298.15 K, x2 = 0.776 | 0.194 ± 0.00406
298.15 K, x2 = 0.8626 | 0.154 ± 0.00335
298.15 K, x2 = 0.9423 | 0.0837 ± 0.00191
308.15 K, x2 = 0.0836 | 0.054 ± 0.0012
308.15 K, x2 = 0.1547 | 0.0951 ± 0.00215
308.15 K, x2 = 0.2348 | 0.138 ± 0.00287
308.15 K, x2 = 0.3248 | 0.176 ± 0.00382
308.15 K, x2 = 0.4249 | 0.202 ± 0.0043
308.15 K, x2 = 0.4894 | 0.22 ± 0.00478
308.15 K, x2 = 0.5775 | 0.228 ± 0.00478
308.15 K, x2 = 0.6519 | 0.226 ± 0.00478
308.15 K, x2 = 0.7302 | 0.214 ± 0.00454
308.15 K, x2 = 0.787 | 0.194 ± 0.00406
308.15 K, x2 = 0.8553 | 0.161 ± 0.00359
308.15 K, x2 = 0.9681 | 0.0564 ± 0.0012

CCC(O)CC [3-pentanol]
Details | mass density, [1] [kg/m3] | relative permittivity, [2]
298.15 K | 815.62 ± 0.83 | 13.21 ± 0.29
308.15 K | 806.9 ± 0.82 | 11.39 ± 0.29

CCC(O)CC [3-pentanol] + CCCCOCCCC
[3]
Details | excess molar enthalpy [kcal/mol]
298.15 K, x2 = 0.0979 | 0.0951 ± 0.00215
298.15 K, x2 = 0.1702 | 0.159 ± 0.00335
298.15 K, x2 = 0.2558 | 0.219 ± 0.00478
298.15 K, x2 = 0.3242 | 0.257 ± 0.0055
298.15 K, x2 = 0.4033 | 0.283 ± 0.00598
298.15 K, x2 = 0.4684 | 0.302 ± 0.00645
298.15 K, x2 = 0.5438 | 0.314 ± 0.00669
298.15 K, x2 = 0.6374 | 0.311 ± 0.00669
298.15 K, x2 = 0.7023 | 0.3 ± 0.00645
298.15 K, x2 = 0.7739 | 0.269 ± 0.00574
298.15 K, x2 = 0.8554 | 0.214 ± 0.00454
298.15 K, x2 = 0.9278 | 0.129 ± 0.00287
308.15 K, x2 = 0.0991 | 0.0968 ± 0.00215
308.15 K, x2 = 0.1692 | 0.157 ± 0.00335
308.15 K, x2 = 0.235 | 0.202 ± 0.0043
308.15 K, x2 = 0.3202 | 0.25 ± 0.00526
308.15 K, x2 = 0.3985 | 0.276 ± 0.00598
308.15 K, x2 = 0.5414 | 0.306 ± 0.00645
308.15 K, x2 = 0.6464 | 0.306 ± 0.00645
308.15 K, x2 = 0.7326 | 0.29 ± 0.00621
308.15 K, x2 = 0.811 | 0.246 ± 0.00526
308.15 K, x2 = 0.8986 | 0.182 ± 0.00382
308.15 K, x2 = 0.9603 | 0.0817 ± 0.00191

CCCCCO [pentan-1-ol]
Details | mass density, [1] [kg/m3] | relative permittivity, [2]
298.15 K | 810.89 ± 0.31 | 15 ± 0.24
308.15 K | 803.7 ± 0.31 | 13.51 ± 0.24

CCCC(C)O (stereo not given) [pentan-2-ol]
Details | mass density, [1] [kg/m3] | relative permittivity, [2]
298.15 K | 806.11 ± 0.82 | 13.54 ± 0.23
308.15 K | 798 ± 0.81 | 12.08 ± 0.23

CCCC(C)O (stereo not given) [pentan-2-ol] + CCCCOCCCC
[3]
Details | excess molar enthalpy [kcal/mol]
298.15 K, x2 = 0.0974 | 0.0839 ± 0.00191
298.15 K, x2 = 0.1685 | 0.136 ± 0.00287
298.15 K, x2 = 0.2474 | 0.185 ± 0.00406
298.15 K, x2 = 0.3335 | 0.225 ± 0.00478
298.15 K, x2 = 0.397 | 0.243 ± 0.00526
298.15 K, x2 = 0.5096 | 0.268 ± 0.00574
298.15 K, x2 = 0.549 | 0.27 ± 0.00574
298.15 K, x2 = 0.6386 | 0.268 ± 0.00574
298.15 K, x2 = 0.705 | 0.255 ± 0.0055
298.15 K, x2 = 0.7803 | 0.232 ± 0.00502
298.15 K, x2 = 0.8623 | 0.193 ± 0.00406
298.15 K, x2 = 0.9322 | 0.118 ± 0.00263
308.15 K, x2 = 0.0841 | 0.0758 ± 0.00167
308.15 K, x2 = 0.1634 | 0.138 ± 0.00311
308.15 K, x2 = 0.2305 | 0.182 ± 0.00382
308.15 K, x2 = 0.3156 | 0.225 ± 0.00478
308.15 K, x2 = 0.4161 | 0.264 ± 0.00574
308.15 K, x2 = 0.4834 | 0.284 ± 0.00598
308.15 K, x2 = 0.5759 | 0.288 ± 0.00621
308.15 K, x2 = 0.6314 | 0.286 ± 0.00621
308.15 K, x2 = 0.7299 | 0.265 ± 0.00574
308.15 K, x2 = 0.8144 | 0.234 ± 0.00502
308.15 K, x2 = 0.908 | 0.161 ± 0.00359
308.15 K, x2 = 0.964 | 0.0746 ± 0.00167
